Test results published in the NIST ThermoML archive (doi:10.1021/je700646e).

Assay: xn = mol fraction of the nth substance listed
Settings: Fluid (supercritical or subcritical phases), Taylor dispersion method, x1 = 0

SMILES | binary diffusion coefficient (313.16 K, 15000 kPa) [m2/s] | binary diffusion coefficient (313.16 K, 20000 kPa) [m2/s] | binary diffusion coefficient (313.16 K, 25000 kPa) [m2/s] | binary diffusion coefficient (313.16 K, 30000 kPa) [m2/s] | binary diffusion coefficient (313.16 K, 35000 kPa) [m2/s] | binary diffusion coefficient (323.16 K, 15000 kPa) [m2/s] | binary diffusion coefficient (323.16 K, 20000 kPa) [m2/s] | binary diffusion coefficient (323.16 K, 25000 kPa) [m2/s] | binary diffusion coefficient (323.16 K, 30000 kPa) [m2/s] | binary diffusion coefficient (323.16 K, 35000 kPa) [m2/s] | binary diffusion coefficient (333.16 K, 15000 kPa) [m2/s] | binary diffusion coefficient (333.16 K, 20000 kPa) [m2/s] | binary diffusion coefficient (333.16 K, 25000 kPa) [m2/s] | binary diffusion coefficient (333.16 K, 30000 kPa) [m2/s] | binary diffusion coefficient (333.16 K, 35000 kPa) [m2/s]
C=CCc1ccc(O)c(OC)c1 [2-hydroxy-5-allylanisole] + O=C=O | 9.29e-09 | 7.69e-09 | 6.96e-09 | 6.37e-09 | 6.1e-09 | 1.14e-08 | 9.08e-09 | 8.03e-09 | 7.39e-09 | 6.91e-09 | 1.21e-08 | 1.04e-08 | 9.19e-09 | 8.32e-09 | 7.9e-09
CC(=O)CCc1ccccc1 [4-phenyl-2-butanone] + O=C=O | 8.97e-09 | 8.05e-09 | 7.39e-09 | 6.95e-09 | 6.58e-09 | 1.06e-08 | 9.25e-09 | 8.65e-09 | 7.83e-09 | 7.5e-09 | 1.15e-08 | 1.08e-08 | 9.59e-09 | 8.92e-09 | 8.29e-09
CCOC(=O)c1ccccc1 [ethyl benzoate] + O=C=O | 1.05e-08 | 8.06e-09 | 7.53e-09 | 6.82e-09 | 6.7e-09 | 1.3e-08 | 1.01e-08 | 8.65e-09 | 7.82e-09 | 7.25e-09 | 1.49e-08 | 1.19e-08 | 9.82e-09 | 8.78e-09 | 8.36e-09
